Experiment [1] can be described thus: Effect on cAMP accumulation in non-TGR5 expressing HEK293-A cells transfected with EPAC-based FRET biosensor at 30 uM incubated for 10 mins in presence of IBMX and roflumilast by fluorescence based photometry relative to control. Type of experiment: functional, Homo sapiens. For orientation: Changes in cAMP serve as a functional read-out for many G protein-coupled receptors.

In experiment [2] the target is T1, G-protein coupled bile acid receptor 1 (Homo sapiens, UniProt Q8TDU6).
T1 sequence (Q8TDU6 whole entry): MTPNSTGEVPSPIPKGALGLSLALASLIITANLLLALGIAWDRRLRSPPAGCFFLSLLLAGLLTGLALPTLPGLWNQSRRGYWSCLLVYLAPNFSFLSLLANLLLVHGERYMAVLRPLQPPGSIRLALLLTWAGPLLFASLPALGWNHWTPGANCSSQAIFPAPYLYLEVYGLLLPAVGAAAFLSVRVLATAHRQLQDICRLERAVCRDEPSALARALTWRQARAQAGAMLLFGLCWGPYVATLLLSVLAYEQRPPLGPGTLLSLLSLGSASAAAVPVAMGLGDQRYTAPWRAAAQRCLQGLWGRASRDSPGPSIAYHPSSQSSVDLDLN
As to the kind of experiment: (§1) Agonist activity at human TGR5 expressed in HEK293-A cells co-transfected with EPAC-based FRET biosensor incubated for 18 hrs by CRE-luciferase reporter gene assay. The format is functional, cell-based.

The target in experiment [3] is T2, G-protein coupled bile acid receptor 1 (Homo sapiens) (UniProt Q8TDU6).
T2 sequence (whole entry): T1 sequence (Q8TDU6 whole entry)
Described as §1. The conditions noted are these: filed as agonist. The format is functional, cell-based.

A short description of experiment [4]: Effect on CRE-luciferase activity in TGR5 non-expressing HEK293-A cells transfected with EPAC-based FRET biosensor assessed as fold activation at 30 uM incubated for 18 hrs by spectrophotometric analysis relative to control. Type of experiment: functional, Homo sapiens.
For experiment [5], the target named is T1, G-protein coupled bile acid receptor 1. As to the kind of experiment: Agonist activity at human TGR5 expressed in HEK293-A cells co-transfected with EPAC-based FRET biosensor assessed as increase in cAMP accumulation incubated for 10 mins by spectrophotometry. The format is functional, cell-based.

pEC50: −log10 of the molar value.

Take `CC1(C)c2ccccc2CCN1CC(=O)NC[C@@H]1Cc2ccccc2O1`: the Activity is 103.7% in experiment [1] and “Dose-Dependent Effect” in experiment [3]. Besides, the pEC50 (usually −log10 of the EC50, conventionally taken in molar units) was 4.72 in experiment [2] and 4.52 in experiment [5]. Moreover, the “fold change (FC)” value in experiment [4] worked out at 0.82.

On to `Cc1ccc(CCCNC(=O)NCc2cn3c(C)cccc3n2)c(C)c1`, for which the “fold change (FC)” value in experiment [4] is reported as 0.87.

For `Cc1cc(S(=O)(=O)NCCn2ccnc2C2CC2)c(Cl)cc1Cl`, the Activity in experiment [1] was found to be 103.9%. In experiment [4], the “fold change (FC)” value is reported as 0.96.

In the case of `CC(C)c1ccccc1OCCC(=O)NC[C@@H]1Cc2ccccc21`, the Activity is 107.1% in experiment [1] and “Dose-Dependent Effect” in experiment [3]. Also, the “fold change (FC)” value in experiment [4] is 0.57.

On to `c1cc(CNC2CC2)cc(-c2cccc3cccnc23)c1`, for which, in experiment [1], the Activity is recorded as 105.3%. Further, in experiment [4], the “fold change (FC)” value is reported as 1.22.

On to `CO[C@@H](CNC(=O)CCc1cc2cc(Br)ccc2s1)Cc1ccccc1`, for which the Activity in experiment [1] is 106.4%; in experiment [3] it was “Dose-Dependent Effect”. Moreover, the “fold change (FC)” value in experiment [4] stood at 0.75.

In the case of `c1ccc(-n2cccc2CNC2CCCN(C3Cc4ccccc4C3)C2)nc1` (stereo not drawn), in experiment [1], the Activity was 104%. For the same compound, the “fold change (FC)” value in experiment [4] stood at 1.44.

The values are drawn from ChEMBL document CHEMBL5608192, “Discovery and characterization of small-molecule TGR5 ligands with agonistic activity” (Eur J Med Chem, 2024).
